In ChEMBL document CHEMBL1125472, “5-lipoxygenase: properties, pharmacology, and the quinolinyl(bridged)aryl class of inhibitors” (J Med Chem, 1992):
Blank lines part the entries; values can stand above or below the molecule they belong to.

Experiments:
Homo sapiens [1] = organism: Homo sapiens; test: The compound was tested for inhibitory activity against Leukotriene synthesis in human monocytes; type: functional
[2] = biological target: T1, Leukotriene C4 synthase (Rattus norvegicus) (UniProt Q925U2); test: The compound was tested for inhibition LTC4 synthase from whole cells in rat
T1 sequence (whole entry): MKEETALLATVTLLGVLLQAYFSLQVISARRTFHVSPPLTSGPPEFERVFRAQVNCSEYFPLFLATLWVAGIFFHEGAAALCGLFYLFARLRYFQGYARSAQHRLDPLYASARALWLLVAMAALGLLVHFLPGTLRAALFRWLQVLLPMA

[3] = biological target: T2, Polyunsaturated fatty acid 5-lipoxygenase (Rattus norvegicus) (UniProt P12527); test: The compound was tested for inhibition of isolated 5-lipoxygenase
T2 sequence (whole entry): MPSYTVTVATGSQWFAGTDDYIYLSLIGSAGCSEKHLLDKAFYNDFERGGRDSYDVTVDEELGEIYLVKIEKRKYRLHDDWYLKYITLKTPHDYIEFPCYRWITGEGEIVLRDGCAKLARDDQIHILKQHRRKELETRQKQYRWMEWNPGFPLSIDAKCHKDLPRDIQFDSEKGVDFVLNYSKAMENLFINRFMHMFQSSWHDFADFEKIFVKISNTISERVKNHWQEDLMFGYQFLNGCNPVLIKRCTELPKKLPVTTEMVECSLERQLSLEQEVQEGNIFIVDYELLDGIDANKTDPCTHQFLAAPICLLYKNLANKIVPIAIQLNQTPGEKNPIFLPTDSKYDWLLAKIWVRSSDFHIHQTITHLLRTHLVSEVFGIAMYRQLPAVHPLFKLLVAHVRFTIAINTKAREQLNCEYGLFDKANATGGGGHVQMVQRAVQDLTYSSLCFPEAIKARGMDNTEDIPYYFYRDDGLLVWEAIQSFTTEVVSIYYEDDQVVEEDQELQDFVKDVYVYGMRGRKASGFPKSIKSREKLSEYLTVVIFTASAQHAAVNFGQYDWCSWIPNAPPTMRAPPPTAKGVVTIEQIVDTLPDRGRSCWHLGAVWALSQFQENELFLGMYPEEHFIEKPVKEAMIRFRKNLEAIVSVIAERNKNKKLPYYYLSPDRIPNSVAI

Homo sapiens [4] = organism: Homo sapiens; test: The compound was tested for inhibitory activity against 5-Lipoxygenase in human polymorphonuclear leukocytes[PMNS]; type: functional
[5] = biological target: T3, Polyunsaturated fatty acid 5-lipoxygenase (Homo sapiens, UniProt P09917); test: The compound was tested for inhibitory activity against LT synthesis in human polymorphonuclear leukocytes[PMNS]; type: cell-based
T3 sequence (P09917 whole entry): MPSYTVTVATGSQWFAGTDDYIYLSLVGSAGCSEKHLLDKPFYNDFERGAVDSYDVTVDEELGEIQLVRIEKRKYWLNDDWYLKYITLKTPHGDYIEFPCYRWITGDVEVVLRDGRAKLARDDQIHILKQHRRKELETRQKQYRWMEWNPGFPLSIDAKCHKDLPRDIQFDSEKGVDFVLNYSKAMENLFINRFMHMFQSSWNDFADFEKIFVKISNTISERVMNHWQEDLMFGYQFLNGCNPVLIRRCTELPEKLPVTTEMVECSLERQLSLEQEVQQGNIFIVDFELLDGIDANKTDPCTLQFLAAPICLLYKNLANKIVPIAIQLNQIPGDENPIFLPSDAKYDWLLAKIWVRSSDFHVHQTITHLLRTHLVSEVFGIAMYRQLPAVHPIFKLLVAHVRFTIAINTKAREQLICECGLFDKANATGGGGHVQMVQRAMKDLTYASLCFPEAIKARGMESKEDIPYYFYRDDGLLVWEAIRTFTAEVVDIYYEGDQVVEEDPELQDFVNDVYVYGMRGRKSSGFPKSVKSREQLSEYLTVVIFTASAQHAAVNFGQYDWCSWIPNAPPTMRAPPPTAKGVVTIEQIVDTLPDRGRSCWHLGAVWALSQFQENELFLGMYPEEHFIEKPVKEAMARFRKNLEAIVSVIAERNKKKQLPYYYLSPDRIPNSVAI

[6] = biological target: T2, Polyunsaturated fatty acid 5-lipoxygenase (Rattus norvegicus); test: The compound was tested for inhibition of 5-lipoxygenase translocation in SAR in rat RBL-2H3 cells; type: functional, cell-based
[7] = biological target: T4, Polyunsaturated fatty acid 5-lipoxygenase (Rattus norvegicus, UniProt P12527); test: The compound was tested for inhibitory activity against 5-lipoxygenase translocation inhibitor in rat RBL-2H3 cells; type: functional, cell-based
T4 sequence (P12527 whole entry): T2 sequence (whole entry)

[8] = biological target: T4, Polyunsaturated fatty acid 5-lipoxygenase; test: The compound was tested for inhibitory activity against 5-lipoxygenase in rat polymorphonuclear leukocytes[PMNS]; type: cell-based
Cavia porcellus [9] = organism: Cavia porcellus; test: The compound was tested for inhibitory activity against LTD4-induced contractions of guinea pig ileum; type: functional
Cyclooxygenase = biological target: T5, Cyclooxygenase (Rattus norvegicus, UniProt P35355+Q63921); test: The compound was tested for inhibitory activity against Prostaglandin G/H synthase in rat polymorphonuclear leukocytes[PMNS]; type: cell-based
T5 sequence (P35355 whole entry): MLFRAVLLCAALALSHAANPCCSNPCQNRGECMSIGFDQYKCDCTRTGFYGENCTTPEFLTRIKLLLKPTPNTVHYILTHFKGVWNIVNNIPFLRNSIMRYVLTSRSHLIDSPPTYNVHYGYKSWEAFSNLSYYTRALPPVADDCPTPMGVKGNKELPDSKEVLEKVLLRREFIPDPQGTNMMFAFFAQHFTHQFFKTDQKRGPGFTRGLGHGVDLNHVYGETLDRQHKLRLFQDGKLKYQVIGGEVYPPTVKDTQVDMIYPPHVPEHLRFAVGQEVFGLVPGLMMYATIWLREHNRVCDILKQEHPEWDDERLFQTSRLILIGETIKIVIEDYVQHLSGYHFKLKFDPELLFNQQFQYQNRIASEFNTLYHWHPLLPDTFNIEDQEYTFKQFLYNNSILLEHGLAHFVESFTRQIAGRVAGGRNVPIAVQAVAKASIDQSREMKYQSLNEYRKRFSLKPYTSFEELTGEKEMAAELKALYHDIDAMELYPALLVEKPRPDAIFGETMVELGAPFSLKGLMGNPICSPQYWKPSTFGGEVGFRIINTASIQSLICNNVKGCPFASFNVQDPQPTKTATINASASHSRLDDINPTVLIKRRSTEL
T5 sequence (Q63921 whole entry): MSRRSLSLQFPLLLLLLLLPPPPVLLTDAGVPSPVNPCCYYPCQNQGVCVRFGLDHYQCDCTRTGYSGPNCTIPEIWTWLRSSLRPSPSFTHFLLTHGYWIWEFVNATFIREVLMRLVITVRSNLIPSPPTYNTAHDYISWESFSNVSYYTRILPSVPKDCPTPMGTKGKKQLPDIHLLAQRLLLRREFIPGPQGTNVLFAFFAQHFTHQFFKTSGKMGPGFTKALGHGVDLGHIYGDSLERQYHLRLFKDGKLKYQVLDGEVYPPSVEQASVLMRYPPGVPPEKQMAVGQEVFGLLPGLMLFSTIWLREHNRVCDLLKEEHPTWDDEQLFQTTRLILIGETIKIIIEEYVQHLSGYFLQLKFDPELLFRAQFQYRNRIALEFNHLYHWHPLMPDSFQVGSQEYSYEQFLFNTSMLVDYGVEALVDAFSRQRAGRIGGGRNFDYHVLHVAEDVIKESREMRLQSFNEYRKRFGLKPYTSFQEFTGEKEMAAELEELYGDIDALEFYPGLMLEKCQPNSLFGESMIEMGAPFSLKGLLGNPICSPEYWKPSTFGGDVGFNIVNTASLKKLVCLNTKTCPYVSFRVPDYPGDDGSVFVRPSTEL

[10] = biological target: T3, Polyunsaturated fatty acid 5-lipoxygenase
[11] = biological target: T4, Polyunsaturated fatty acid 5-lipoxygenase; test: The compound was tested for inhibitory activity against 5-Lipoxygenase in rat RBL-1; type: cell-based
Cavia porcellus [12] = organism: Cavia porcellus; test: The compound was tested for binding affinity against guinea pig lung membrane using [3H]LTD4 as radioligand
Cavia porcellus [13] = test: The compound was tested for inhibition of LTD4 response in guinea pig bronchoconstriction assay after intraduodenal administration (30 mg/kg)
[14] = biological target: Cyclooxygenase (Rattus norvegicus) (UniProt P35355+Q63921); test: The compound was tested for inhibition against Prostaglandin G/H synthase in rat polymorphonuclear leukocytes[PMNS] at 10 uM concentration; type: cell-based
[15] = biological target: T2, Polyunsaturated fatty acid 5-lipoxygenase (Rattus norvegicus); test: The compound was tested for inhibition against 5-lipoxygenase in rat polymorphonuclear leukocytes[PMNS] at 10 uM concentration; type: cell-based
Cavia porcellus [16] = organism: Cavia porcellus; test: The effective dose for inhibition of LTD4-induced contractions of guinea pig trachea; type: functional
[17] = biological target: T4, Polyunsaturated fatty acid 5-lipoxygenase; test: The compound was tested for inhibitory activity against 5-Lipoxygenase in rat polymorphonuclear leukocytes[PMNS]; type: cell-based
[18] = biological target: T2, Polyunsaturated fatty acid 5-lipoxygenase (Rattus norvegicus); test: The compound was tested for inhibition against 5-Lipoxygenase in rat polymorphonuclear leukocytes at 10 uM concentration; type: cell-based

- IC50 (Homo sapiens [1]): 50 nM
- Inhibition [2]: 3 nM
- Inhibition [3]: > 20 µM
- IC50 (Homo sapiens [4]): 2.5 nM
- IC50 [5]: 60 nM
- Inhibition [6]: 35 nM
- IC50 [7]: 5 nM
Compound: CC(C)c1ccc2c(c1)c(SC(C)(C)C)c(CC(C)(C)C(=O)O)n2Cc1ccc(Cl)cc1

- IC50 [8]: 32000 nM
Compound: CCCc1c(OCC(O)COc2cccc(NC(=O)C(=O)OCC)c2C#N)ccc(C(C)=O)c1O (stereo not drawn)

- IC50 [8]: 10000 nM
- IC50 (Cavia porcellus [9]): 3 nM
- IC50 (Cyclooxygenase): 2000 nM
Compound: O=C(O)c1ccccc1Nc1cccc(OCc2ccc3ccccc3n2)c1 [SR-2640]

- IC50 [10]: 100 nM
Compound: CSc1ccccc1/C=C/C(=O)N(C)O

- IC50 [8]: 2000 nM
Compound: CCN(CC)C(=O)N(C)C[C@H](O)c1cccc(OCc2ccc3ccccc3n2)c1

- IC50 [11]: 11000 nM
Compound: CC(c1ccoc1)N(O)C(N)=O (stereo not drawn)

- IC50 [11]: 500 nM
Compound: COc1c(OC)c(OC(C)=O)c2cc(Cl)ccc2c1OC(C)=O [LONAPALENE]

- Ki (Cavia porcellus [12]): 700 nM
Compound: CCCCCC(O)c1cccc(OCc2ccc3ccccc3n2)c1 (stereo not drawn) [REV-5901]
- Inhibition (Cavia porcellus [13]): 74%

- Inhibition [14]: 47%
- Inhibition [15]: 91%
Compound: CCc1cc(OCc2ccc3ccccc3n2)cc2c3c([nH]c12)C(CC)(CC(=O)O)OCC3 (stereo not drawn)

- Inhibition [15]: 96%
Compound: O=C(O)CCc1nc(-c2ccc(OCc3ccc4ccccc4n3)cc2)c(-c2ccccc2)o1

- IC50 [17]: 3900 nM
Compound: Cc1ccc(S(=O)(=O)NC(=O)c2cccc(OCc3ccc4ccccc4n3)c2)cc1
- ED50 (Cavia porcellus [16]): 3 mg/kg

- Inhibition [18]: 92%
Compound: CC(C(=O)O)c1ccc2c3cc(OCc4ccc5ccccc5n4)ccc3n(Cc3ccc4ccccc4n3)c2c1 (stereo not drawn)
